What all share (experiment): cells
What all share (design): species or system NCI-60 human tumour cell lines; NCI-60 one-dose screen at 10 uM, percent growth inhibition versus untreated control cells

Experiment [1] relates to CCRF-CEM. The following applies: Homo sapiens, CCRF-CEM, growth inhibition, one dose.
Experiment [2] deals with SNB-75. The following applies: Homo sapiens, SNB-75, growth inhibition, one dose.
The subject of experiment [3] is NCI-H23. The following applies: Homo sapiens, NCI-H23, growth inhibition, one dose.
For experiment [4], the system named is HT29. The following applies: Homo sapiens, HT-29, growth inhibition, one dose.
Experiment [5] has as its system COLO 205. The following applies: Homo sapiens, COLO 205, growth inhibition, one dose.
In experiment [6] the test system is NCI-H226. The following applies: Homo sapiens, NCI-H226, growth inhibition, one dose.
The test system of experiment [7] is HS 578 T. The following applies: Homo sapiens, Hs-578T, growth inhibition, one dose.
For experiment [8], the system named is SK-OV-3. The following applies: Homo sapiens, SK-OV-3, growth inhibition, one dose.
The subject of experiment [9] is HCC-2998. The following applies: Homo sapiens, HCC 2998, growth inhibition, one dose.
Experiment [10] concerns RXF 393. The following applies: Homo sapiens, RXF 393, growth inhibition, one dose.
For experiment [11], the system named is SF-295. The following applies: Homo sapiens, SF-295, growth inhibition, one dose.
Experiment [12] has as its system TK-10. The following applies: Homo sapiens, TK-10, growth inhibition, one dose.
The subject of experiment [13] is SN12C. The following applies: Homo sapiens, SN12C, growth inhibition, one dose.
Experiment [14] has as its system DU-145. The following applies: Homo sapiens, DU-145, growth inhibition, one dose.
Experiment [15] deals with MDA-MB-468. The following applies: Homo sapiens, MDA-MB-468, growth inhibition, one dose.
The mark [16] stands for this setting: read-out: Growth% inhibition / 5d.
The mark [17] stands for this setting: read-out: Growth% inhibition / 5a.
Where [18] appears, read: read-out: Growth% inhibition / 5b.
Where [19] appears, read: read-out: Growth% inhibition / 5e.
The mark [20] stands for this setting: read-out: Growth% inhibition / 5h.

Data on five molecules can be found in publication PMC9037111, “Structure-based design, synthesis, and biological evaluation of novel piperine–resveratrol hybrids as antiproliferative agents targeting SIRT-2” (RSC Advances, 2021).

Where two headings read alike, the source gives them in different places.

In the case of `CN(C)c1ccc(C=NNC(=O)/C=C/C=C/c2ccc3c(c2)OCO3)cc1` (mixture of isomers) [5d, (2E,4E)-5-(Benzo[d][1,3]dioxol-5-yl)-N′-((E/Z)-4-(dimethylamino)-benzylidene)penta-2,4-dienehydrazide], the inhibition at 10 µM in experiment [1] (setting [16]) was 20.5%; in [2] (setting [16]) it was 25.7%.

Take `O=C(/C=C/C=C/c1ccc2c(c1)OCO2)NN=Cc1ccc(O)cc1` [5a, (2E,4E)-5-(Benzo[d][1,3]dioxol-5-yl)-N′-((E,Z)-4-hydroxybenzylidene)penta-2,4-dienehydrazide]: the values for the inhibition at 10 µM in [1] (setting [17]) and in [2] (setting [17]) were 32.4% and 27%, respectively.

With `O=C(/C=C/C=C/c1ccc2c(c1)OCO2)N/N=C/c1ccc(O)cc1O` [5b, (2E,4E)-5-(Benzo[d][1,3]dioxol-5-yl)-N′-((E)-2,4-dihydroxybenzylidene)penta-2,4-dienehydrazide], the inhibition at 10 µM in experiment [3] (setting [18]) came out at 70%; in experiment [4] (setting [18]), 51.9%; in experiment [5] (setting [18]), 86%; in experiment [1] (setting [18]), 81%; in [6] (setting [18]), 62.4%; in experiment [7] (setting [18]), 29.8%. Besides, the inhibition at 10 µM worked out at 73% in experiment [8] (setting [18]); 61.1% in [9] (setting [18]); 42.1% in experiment [10] (setting [18]); 86.2% in experiment [11] (setting [18]); 36% in [2] (setting [18]); 69% in experiment [12] (setting [18]). For the same molecule, the inhibition at 10 µM came out at 67.2% in [13] (setting [18]) and 50% in experiment [14] (setting [18]).

`CCN(CC)c1ccc(/C=N/NC(=O)/C=C/C=C/c2ccc3c(c2)OCO3)c(O)c1` [5e, (2E,4E)-5-(Benzo[d][1,3]dioxol-5-yl)-N′-((E)-4-(diethylamino)-2-hydroxybenzylidene)penta-2,4-dienehydrazide]: the inhibition at 10 µM in [3] (setting [19]) turned out to be 50.3%; in experiment [4] (setting [19]), 32.2%; in [5] (setting [19]), 60.1%; in [1] (setting [19]) it was 78.3%; in experiment [6] (setting [19]), 50.5%; in experiment [7] (setting [19]), 31.9%. Moreover, the inhibition at 10 µM in experiment [8] (setting [19]) is 60.5%; in [9] (setting [19]) it was 46%; in experiment [10] (setting [19]), 27.4%; in experiment [11] (setting [19]) it was 58.3%; in [2] (setting [19]), 41.2%; in experiment [12] (setting [19]) it was 62.2%. Moreover, the figures for the inhibition at 10 µM in [13] (setting [19]), in experiment [14] (setting [19]) and in experiment [15] (setting [19]) were 45.9%, 46.8% and 86.6%, respectively.

Consider `C/C(=N\NC(=O)/C=C/C=C/c1ccc2c(c1)OCO2)c1ccc(Br)cc1` [5h, (2E,4E)-5-(Benzo[d][1,3]dioxol-5-yl)-N′-((E)-1-(4-bromophenyl)ethylidene)penta-2,4-dienehydrazide], for which the inhibition at 10 µM in [1] (setting [20]) turned out to be 44.3%; in [6] (setting [20]), 24.1%; in [7] (setting [20]), 86.5%; in experiment [9] (setting [20]), 10.8%; in experiment [2] (setting [20]) it was 68.1%; in experiment [13] (setting [20]), 12.4%. The inhibition at 10 µM came to 44% in [14] (setting [20]) and 29.3% in [15] (setting [20]).
